Source: publication PMC6815954, “Rational design of caspase-responsive smart molecular probe for positron emission tomography imaging of drug-induced apoptosis” (Theranostics, 2019)
Where two headings read alike, the source gives them in different places.

Tests used:
[1] = system: active caspase-3 (19/17 kDa); test: Western blotting of DOX-treated HeLa cells, active caspase-3; type: cell-based, human; settings: 24 h
Procedure: (§1) Western blotting analysis of caspase-3 activity in DOX-treated HeLa cells HeLa cells were seeded into 6-well plates at the density of 5 ×10^5 cells/well, followed by treatment with various concentrations of DOX for 24 h. Cells were washed with ice-cold PBS and then lysed at 4 °C for 5 min with RIPA lysis buffer containing protease and phosphatase inhibitors (Halt Protease Inhibitor Cocktail, Thermo Fisher Scientific Inc.). Soluble lysates were harvested by centrifugation at 12,000 rpm for 10 min at 4 °C. The content of protein was […]
(§2) (1 picture or pasted object on this page, not shown here) […]
(§3) measured using BCA protein assay kit and 40 μg of protein was separated with a 12% […]
(§4) SDS-PAGE gel. After blotting to PVDF membrane, the membranes were blocked with 5% […]
(§5) skimmed milk in tris-buffered saline (TBS, pH 7.4) for 60 min at room temperature and […]
(§6) incubated overnight at 4 °C in buffer (TBS with 0.1% Tween-20 and 5% skimmed milk) […]
(§7) containing different antibodies. Detection of primary antibodies was performed with […]
(§8) HRP-conjugated secondary antibody. Immunoreactive bands were visualized with Western […]
(§9) blotting luminol reagent. Densitometric analysis was performed using Image J software. […]
(§10) The DOX-treated group was cultured in the presence of DOX (2 µM) […]
(§11) for 6 h at 37 °C, then the medium was changed and the cells were cultured for another 24 h at […]
(§12) 37 °C. After incubated with 1-FITC (2 µM) for 6 h at 37 °C, the cells were washed with PBS, […]
(§13) fixed with 3.7% formaldehyde in PBS and permeabilized with 0.1% Triton X-100 in PBS for […]
(§14) 30 min at room temperature. Cells were blocked with 5% BSA in PBS for 30 min, and then […]
(§15) washed with PBS. Afterwards, cells were incubated with anti-caspase-3 antibody (caspase-3 […]
(§16) rabbit monoclonal antibody, Beyotime) overnight at 4 °C, washed with PBS, and incubated […]
(§17) with Cy3-labeled goat anti-rabbit IgG (Beyotime) for 1 h. Cells were washed with PBS […]
(§18) andstained with DAPI (5 µg/mL) for 2 min, and thenwashed twice with PBS. Finally, the cells […]
(§19) were viewed with the Olympus Xcellence. […]

[2] = system: activated caspase-3 (19/17 kDa); test: Western blotting of tumor and muscle lysates; type: in vivo, BALB/c nude mice; settings: DOX intratumoral; normalized to β-actin; n = 3
Procedure: At the end of microPET imaging, DOX-treated or untreated mice were killed. Tumor and muscle tissues (~100 mg) were homogenized by an electronic homogenate machine in RIPA lysis buffer (1 mL) containing protease and phosphatase inhibitors (Halt Protease Inhibitor Cocktail, Thermo Fisher Scientific Inc.). Soluble lysates were harvested by centrifugation at 12,000 rpm for 10 min at 4 °C. Protein content was measured using BCA protein assay kit and 40 μg of protein was separated with a 12% SDS-PAGE gel. After blotting to PVDF membrane, the membranes were blocked with 5% skimmed milk in tris-buffered saline (TBS, pH 7.4) for 60 min at room temperature and incubated overnight at 4 °C in buffer (TBS with 0.1% Tween-20 and 5% skimmed milk) containing different antibodies. Detection of primary antibody was performed with HRP-conjugated secondary antibody. Immunoreactive bands were visualized with Western blotting luminol reagent. Densitometric analysis was performed using Image J software.

[3] = system: intact caspase-3 (35 kDa); test: Western blotting of DOX-treated HeLa cells, intact caspase-3; type: cell-based, human; settings: 24 h
Procedure: as §1, §2, §3, §4, §5, §6, §7, §8, §9, §10, §11, §12, §13, §14, §15, §16, §17, §18, §19

tumor [4] = settings: cited from earlier work
Text: Recently, a potential PET imaging agent [^18F]ICMT-11 for monitoring the tumor cell death has been approved for clinical trials, where only a modest increase of 65% uptake can be observed in the treated tumor in comparison with the vehicle control tumor [36].

tumor [5] = system: tumor; parameters: method as in PMID 25972517; settings: cited from earlier work
HeLa cells = test: Cellular uptake assay of [^18F]1; type: cell-based, human
Procedure: green fluorescence) for 6 h. The active caspase-3 was stained with anti-caspase-3 primary antibody and a Cy3-labeled secondary antibody (red fluorescence). The cell nuclei were stained with DAPI (blue fluorescence). The images of 1-FITC and active caspase-3 were merged in the last column.
HeLa cells were seeded into a 6-well plate and incubated for 24 h at 37 °C. The cells were cultured in the presence of DOX (2 µM) at 37 °C for 0, 2, 4, 6, 12, and 24 h, respectively. The probe [ 18F]1 (1.0 µCi, 0.037 MBq) was added to each well and incubated for additional 4 h at 37 °C. For inhibition assay, the caspase inhibitor Z-VAD-FMK (50 µM) was added to the DOX-treated cells for 48 h before the addition of [ 18F]1. To study the influence of cold compound 1 on cellular uptake of [ 18F]1 in DOX-treated or untreated cells, HeLa cells were incubated with the cold compound 1 (10 µM) and [ 18F]1 for 4 h at 37 °C.The cells were harvested withcentrifugal separationat 4,000 rpm for 5 min after washing twice with PBS. Then Tryp-LE TM Express (1 mL) was added and the cells were kept for 1-2 min to allow detaching. The cell/Tryp-LE solution was counted by a γ counter and the activity was normalized to the protein concentration (determined by comparison with BSA standard in an absorption assay from Pierce) in each vial.
Figure S23. […]

HeLa xenograft tumor = settings: for tracer uptake ratio in DOX-treated versus untreated tumors: only [^18F]1
Procedure: BALB/c nude mice (18-20 g, 4-6 weeks old) were used for animal experiments. Mice were housed with free access to food and water, and allowed ample time to acclimatize before the experiments. The tumor models were established by subcutaneous injection of human cervical cancer cells HeLa (1~2×10^6) suspended in PBS (100 µL) in the right shoulder or the posterior limb of the nude mouse. The tumors were allowed to grow for around 3-4 weeks to reach the size of 0.5-1.0 cm in diameter. Then, a subset of mice were treated with intratumoral or intravenous injection of DOX (0.2 mg, in 20 µL). Three days later, the animals were used for PET imaging and then the tumors were removed for the analysis of caspase-3 activity. All procedures were approved by the Animal Care and Ethics Committee of Jiangsu Institute of Nuclear Medicine.
PET scanning was carried out using an Inveon Dedicated microPET scanner (Siemens). In all experiments, the mice were anesthetized with isoflurane (2% isoflurane in oxygen at a flow rate of 2 L/min). One group of HeLa-bearing mice were scanned at baseline (without DOX treatment) as a control. For the experimental groups, microPET imaging was performed for one group of mice three days after a single intratumoral injection of DOX (0.2 mg) and the other group was performed after intravenous injection of DOX (0.2 mg) every 4 days for a total of three administrations. The probe [^18F]1 (~100 μCi, in 100 μL physiological saline) was administrated by intravenous injection via the tail vein. For the co-injection group, the mice were administrated by intravenous injection of the probe [^18F]1 with the precursor 1 (20 µmol/kg) via the tail vein. PET images were acquired in a list mode date for 60 min. The PET data were binned into 12 frames and each frame was reconstructed with the OSEM3D/MAP algorithm using microPET Manager (version 6869, Siemens). The reconstructed pixel size was 0.78 × 0.78 × 0.80 mm on a 128 × 128 × 159 image matrix. All PET images were corrected for decay but not for attenuation. Each image was analyzed using ASIPro software (Siemens). […]

Molecule: COc1cccc2c1C(=O)c1c(O)c3c(c(O)c1C2=O)C[C@@](O)(C(=O)CO)C[C@@H]3O[C@H]1C[C@H](N)[C@H](O)[C@H](C)O1 [DOX, doxorubicin]
- increase of active caspase-3 expression versus DOX-untreated cells ([1]; 0.5 µM DOX): 3.3 folds
- increase of active caspase-3 expression versus DOX-untreated cells ([1]; 1 µM DOX): 9.3 folds
- increase of active caspase-3 expression versus DOX-untreated cells ([1]; 2 µM DOX): 13.4 folds
- increase of active caspase-3 expression versus DOX-untreated cells ([1]; 4 µM DOX): 15.5 folds
- expression level of activated caspase-3 in DOX-treated tumor versus muscle [2]: 7.5 folds
- expression level of activated caspase-3 in DOX-treated tumor versus untreated tumor [2]: 4.5 folds
- decrease of intact caspase-3 expression versus DOX-untreated cells ([3]; 0.5 µM DOX): 1.3 folds
- decrease of intact caspase-3 expression versus DOX-untreated cells ([3]; 1 µM DOX): 1.5 folds
- decrease of intact caspase-3 expression versus DOX-untreated cells ([3]; 2 µM DOX): 2.1 folds
- decrease of intact caspase-3 expression versus DOX-untreated cells ([3]; 4 µM DOX): 2.2 folds

Molecule: O=C1C(=O)N(Cc2cn(CC[18F])nn2)c2ccc(S(=O)(=O)N3CCCC3COc3ccc(F)cc3F)cc21 (stereo not shown) [[^18F]ICMT-11]
- increase of uptake in treated tumor versus vehicle control tumor (tumor [4]): 65%

Molecule: OC[C@H]1OC(O)[C@H]([18F])[C@@H](O)[C@@H]1O (stereo partly shown) [^18F-FDG]
- response to cell death (tumor [5]): no differentiated response

Molecule: CC(CCCCC[18F])(C(=O)O)C(=O)O [^18F-ML-10]
- differential response to treatment (tumor [5]): little differential response
- response to cell death (tumor [5]): no differentiated response

Molecule: [^18F]DEVD-Cys(StBu)-PPG(CBT)-AmBF3 [[^18F]1]
- uptake with versus without addition of cold compound 1 (HeLa cells; DOX-untreated HeLa, cold 1 10 µM, 4 h, 37 °C): almost identical
- retained [^18F] activity in DOX-treated cells with caspase inhibitor, versus untreated tumor cells (HeLa cells; HeLa, DOX 24 h, Z-VAD-FMK 50 µM for 48 h before [^18F]1): almost identical
- tumor-to-muscle uptake ratio in treated apoptotic tumor model relative to untreated group (HeLa xenograft tumor; 20 min post injection): more than two folds
- tracer uptake ratio in DOX-treated versus untreated tumors (HeLa xenograft tumor; DOX intratumoral, 15-20 min post injection): 4.23
- tracer uptake ratio in DOX-treated versus untreated tumors (HeLa xenograft tumor; DOX intravenous): 3.01
